From US20230310432A1 (JULIUS-MAXIMILIANS-UNIVERSITÄT WÜRZBURG, priority 2017, published 2023)
Like-named read-outs stand apart in the source and are kept apart here.

Assays:
CD19 CAR/4-1BB-T cells = assay: Serum cytokine levels in NSG/Raji xenograft model (multiplex cytokine analysis); format: in vivo, NSG mice
[1] = cited from earlier work
[2] = system: CD8+ T cells expressing a CD19 CAR with 4-1BB costimulation; assay: Bioluminescence-based cytotoxicity assay, K562/CD19 target cells; format: cell-based, human; settings: dasatinib 100 nM added 1 hour after the start of the co-culture; t=10 hours; >90% without dasatinib
[3] = system: CD8+ T cells expressing a CD19 CAR with CD28 costimulatory domain; assay: Cytokine production and secretion (IFN-γ, IL-2 ELISA), co-culture with K562/CD19; format: cell-based, human; settings: dasatinib ≥50 nM; 20 h
Procedure: Cytokine secretion: 5×10^4 T-cells were plated in duplicate or triplicate wells with target cells at an E:T ratio of 4:1 (K562/ROR1, K562/CD19, RCH-ACV), and IFN-γ and IL-2 were measured by ELISA, or cytokine panels were measured by multiplex cytokine immunoassay (Luminex) in supernatant removed after 20-h incubation. Specific cytokine production was calculated by subtracting the amount of cytokines released by unstimulated CAR-T cells from the amount of cytokines released after antigen-specific stimulation. The remaining cytokine secretion in % as shown in the diagrams is normalized to CAR-T cells in the absence of dasatinib-treatment (100%).
CAR-T cells were co-cultured with K562 that the inventors had transduced with either CD19 (for testing CD19 CAR-T cells) or ROR1 (for testing ROR1 CAR-T cells). Dasatinib was added to the assay medium at the beginning of the co-culture assay. ELISA was performed to detect IFN-γ and IL-2 in supernatant removed from the co-culture.

[4] = system: activated CD19 CAR/4-1BB-T cells; format: in vivo, NSG mice
[5] = system: CD8+ T cells expressing a CD19 CAR with CD28 costimulatory domain; assay: CFSE proliferation assay, co-culture with K562/CD19; format: cell-based, human; settings: dasatinib ≥50 nM; 72 h
Procedure: Proliferation: T cells were labeled with 0.2 μM carboxyfluorescein succinimidyl ester (CFSE, Invitrogen), washed and plated in duplicate or triplicate wells with irradiated (80 Gy) stimulator cells at an E:T ratio of 4:1 (K562/ROR1, K562/CD19 or RCH-ACV). No exogenous cytokines were added to the culture medium. After a 72-hour incubation, cells were labeled with anti-CD3 mAb, and analyzed by flow cytometry to assess cell division of T cells.
CAR-T cells were labeled with CFSE and co-cultured with K562 that the inventors had transduced with either CD19 (for testing CD19 CAR-T cells) or ROR1 (for testing ROR1 CAR-T cells). Dasatinib was added to the assay medium at the beginning of the co-culture assay. Flow cytometric analyses were performed to determine the proliferation of T cells at the end of the co-culture assay.

Cc1nc(Nc2ncc(C(=O)Nc3c(C)cccc3Cl)s2)cc(N2CCN(CCO)CC2)n1 [dasatinib]
serum level of GM-CSF (CD19 CAR/4-1BB-T cells; day +1, CAR-T cells and dasatinib (CAR/+)): 6.4 pg/mL | serum level of IFN-γ (CD19 CAR/4-1BB-T cells; day +1, CAR/+): 13.4 pg/mL | serum level of IL-5 (CD19 CAR/4-1BB-T cells; day +1, CAR/+): 21.4 pg/mL | serum level of TNF-α (CD19 CAR/4-1BB-T cells; day +1, CAR/+): 0.04 pg/mL | serum level of GM-CSF (CD19 CAR/4-1BB-T cells; day +3, dasatinib discontinued): 45.8 pg/mL | serum level of IFN-γ (CD19 CAR/4-1BB-T cells; day +3, dasatinib discontinued): 411.8 pg/mL | serum level of IL-2 (CD19 CAR/4-1BB-T cells; day +3, dasatinib discontinued): 0.2 pg/mL | serum level of IL-5 (CD19 CAR/4-1BB-T cells; day +3, dasatinib discontinued): 331.2 pg/mL | serum level of IL-6 (CD19 CAR/4-1BB-T cells; day +3, dasatinib discontinued): 0.9 pg/mL | serum level of TNF-α (CD19 CAR/4-1BB-T cells; day +3, dasatinib discontinued): 0.9 pg/mL | dasatinib concentration in mouse serum ([1]; 5 mg/kg i.p., after each injection, based on known pharmacokinetics [23]): > 50 nM | window after each injection with dasatinib at that serum concentration ([1]; 5 mg/kg i.p., based on known pharmacokinetics [23]): ~6 h | total window with dasatinib present in mouse serum at that concentration ([1]; 10 mg/kg i.p. every 6 hours, 6 doses, 3 hours prior to 33 hours after T-cell transfer): 36 h | dasatinib concentration in mouse serum ([1]; 10 mg/kg i.p. every 6 hours, 6 doses, based on known pharmacokinetics [23]): at least 100 nM | specific lysis [2]: 34% | residual specific IFN-γ production compared to non-dasatinib treated CAR-T cells [3]: less than 4.5% | serum level of IFN-γ ([4]; day 12, CAR(ON/OFF/ON), 157 pg/ml in CAR(ON)): 24 pg/mL | serum level of IFN-γ ([4]; day 14, dasatinib discontinued): 38 pg/mL | residual proliferation compared to non-dasatinib treated CAR-T cells [5]: less than 7%
